Results published in patent US20100168037A1 (priority 2002, published 2010).
Read-outs that look alike come from different tables or passages of the source. Where a SMILES comes first, the peptide text is derived from it. [ ]: non-standard residue; d: D form.

Columns and labels:
[1] = target: RCA60 (Ricinus communis, UniProt P02879); type: binding
[2] = target: BoNT/A (Clostridium botulinum, UniProt P0DPI0); type: binding
[3] = target: BoNT/B neurotoxin (Clostridium botulinum, UniProt P10844); type: binding
Chain of BoNT/B neurotoxin (P10844 whole entry, looked up): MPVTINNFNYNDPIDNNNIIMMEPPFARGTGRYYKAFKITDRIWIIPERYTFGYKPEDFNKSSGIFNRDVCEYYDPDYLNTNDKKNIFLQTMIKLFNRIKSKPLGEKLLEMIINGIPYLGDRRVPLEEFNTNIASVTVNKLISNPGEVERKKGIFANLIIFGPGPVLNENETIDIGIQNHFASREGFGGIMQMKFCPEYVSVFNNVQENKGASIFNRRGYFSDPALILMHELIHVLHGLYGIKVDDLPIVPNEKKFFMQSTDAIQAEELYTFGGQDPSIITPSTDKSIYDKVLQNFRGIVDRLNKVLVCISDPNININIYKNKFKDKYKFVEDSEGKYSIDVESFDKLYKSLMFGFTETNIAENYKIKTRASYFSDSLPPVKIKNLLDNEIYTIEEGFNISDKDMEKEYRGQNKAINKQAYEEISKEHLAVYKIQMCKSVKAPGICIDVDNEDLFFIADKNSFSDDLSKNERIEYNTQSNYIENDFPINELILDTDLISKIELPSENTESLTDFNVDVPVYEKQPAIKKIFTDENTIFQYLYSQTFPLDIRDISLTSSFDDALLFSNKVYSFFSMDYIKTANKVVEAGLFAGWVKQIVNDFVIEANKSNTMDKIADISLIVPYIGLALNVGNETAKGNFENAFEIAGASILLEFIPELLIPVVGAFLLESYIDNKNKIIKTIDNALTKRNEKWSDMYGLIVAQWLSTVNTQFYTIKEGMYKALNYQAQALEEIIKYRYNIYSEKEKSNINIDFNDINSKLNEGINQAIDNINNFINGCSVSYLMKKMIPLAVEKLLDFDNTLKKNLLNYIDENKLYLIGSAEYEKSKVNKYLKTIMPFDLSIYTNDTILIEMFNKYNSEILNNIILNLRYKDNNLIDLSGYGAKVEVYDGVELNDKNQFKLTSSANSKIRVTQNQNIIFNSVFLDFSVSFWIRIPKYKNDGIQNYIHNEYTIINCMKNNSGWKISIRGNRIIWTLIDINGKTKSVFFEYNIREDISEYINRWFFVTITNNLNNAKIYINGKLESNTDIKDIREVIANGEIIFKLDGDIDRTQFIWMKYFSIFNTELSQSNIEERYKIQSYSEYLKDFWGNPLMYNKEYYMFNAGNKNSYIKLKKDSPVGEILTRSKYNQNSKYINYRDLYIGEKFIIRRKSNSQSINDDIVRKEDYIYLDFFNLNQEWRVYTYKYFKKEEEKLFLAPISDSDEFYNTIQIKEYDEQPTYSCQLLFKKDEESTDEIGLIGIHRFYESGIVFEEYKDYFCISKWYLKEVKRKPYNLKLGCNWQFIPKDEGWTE

[4] = target: BoNT/B (Clostridium botulinum, UniProt P10844); type: binding
Chain of BoNT/B (P10844 whole entry, looked up): as above

[5] = target: BotB complex (Clostridium botulinum, UniProt P10844); type: binding
Chain of BotB complex (P10844 2-1291 limits assumed, one chain of several): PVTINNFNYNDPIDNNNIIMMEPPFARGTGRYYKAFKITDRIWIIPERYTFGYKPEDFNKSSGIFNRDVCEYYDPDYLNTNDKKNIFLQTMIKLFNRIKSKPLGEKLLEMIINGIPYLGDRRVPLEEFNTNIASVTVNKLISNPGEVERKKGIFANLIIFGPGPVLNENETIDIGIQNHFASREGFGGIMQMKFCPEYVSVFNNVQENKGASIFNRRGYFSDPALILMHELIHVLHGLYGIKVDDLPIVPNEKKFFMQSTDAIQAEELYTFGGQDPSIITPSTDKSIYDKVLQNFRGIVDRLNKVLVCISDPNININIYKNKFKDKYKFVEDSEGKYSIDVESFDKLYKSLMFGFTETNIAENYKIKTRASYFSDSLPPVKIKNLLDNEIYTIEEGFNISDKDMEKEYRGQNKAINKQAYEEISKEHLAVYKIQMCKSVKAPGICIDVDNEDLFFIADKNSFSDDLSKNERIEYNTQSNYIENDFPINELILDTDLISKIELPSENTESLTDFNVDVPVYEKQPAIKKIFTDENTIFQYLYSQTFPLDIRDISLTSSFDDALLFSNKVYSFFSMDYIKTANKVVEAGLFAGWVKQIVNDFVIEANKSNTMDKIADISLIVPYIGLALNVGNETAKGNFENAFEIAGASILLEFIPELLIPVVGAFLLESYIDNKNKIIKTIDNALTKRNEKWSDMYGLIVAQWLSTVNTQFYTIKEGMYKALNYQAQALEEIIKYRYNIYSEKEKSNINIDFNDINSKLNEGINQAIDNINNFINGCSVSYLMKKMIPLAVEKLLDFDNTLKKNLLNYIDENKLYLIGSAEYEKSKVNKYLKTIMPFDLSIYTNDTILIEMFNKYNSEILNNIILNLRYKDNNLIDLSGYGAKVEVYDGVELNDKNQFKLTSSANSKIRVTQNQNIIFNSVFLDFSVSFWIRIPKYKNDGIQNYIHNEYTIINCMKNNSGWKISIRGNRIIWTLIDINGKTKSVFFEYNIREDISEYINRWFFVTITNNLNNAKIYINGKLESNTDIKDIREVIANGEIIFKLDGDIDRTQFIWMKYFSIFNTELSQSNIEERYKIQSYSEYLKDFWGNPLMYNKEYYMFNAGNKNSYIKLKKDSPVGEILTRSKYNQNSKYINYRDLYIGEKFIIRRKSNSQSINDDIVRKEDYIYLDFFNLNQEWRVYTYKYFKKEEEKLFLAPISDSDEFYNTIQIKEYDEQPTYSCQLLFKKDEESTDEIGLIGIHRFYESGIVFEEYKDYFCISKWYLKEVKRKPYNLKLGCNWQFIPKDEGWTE

[6] = mouse, in vivo
[7] = target: T1, ConA (Canavalia ensiformis, Jack Bean Lectin) (Canavalia ensiformis, UniProt P02866); experiment: Bead library screen, binding of AP-ConA; conditions: peptide on TentaGel bead; AP / NBT-BCIP detection
T1 construct: purchased EY Laboratories (San Mateo, Calif.)

Row | Structure (SMILES) | Saturation Concentration [1] [nM] | binding of BoNT/A in the microplate binding assay [2] | binding of BoNT/B to D-peptide bead (positive bead sequenced) [3] | binding of BoNT/B in the microplate binding assay [4] | other results
1 | C[C@@H](N)C(=O)N[C@H](Cc1ccccc1)C(=O)N[C@H](Cc1ccc(O)cc1)C(=O)N[C@H](C)C(=O)N[C@H](Cc1ccc(O)cc1)C(=O)N[C@H](CCCCN)C(=O)N[C@H](CCCCN)C(=O)N[C@H](CCCCN)C(=O)O [AFYAY] (H-[dA][dF][dY][dA][dY][dK][dK][dK]-OH; C-terminus assumed) | 100 |  |  |  | 
2 | C[C@@H](NC(=O)CN)C(=O)N[C@H](Cc1ccccc1)C(=O)N[C@H](Cc1ccccc1)C(=O)N[C@H](Cc1c[nH]c2ccccc12)C(=O)N[C@H](CCCCN)C(=O)N[C@H](CCCCN)C(=O)N[C@H](CCCCN)C(=O)O [GAFFW] (H-G[dA][dF][dF][dW][dK][dK][dK]-OH; C-terminus assumed) |  | bound | identified | bound | 
3 | NCCCC[C@@H](NC(=O)[C@@H](CCCCN)NC(=O)[C@@H](CCCCN)NC(=O)[C@@H](Cc1ccc(O)cc1)NC(=O)[C@@H](Cc1ccccc1)NC(=O)[C@@H](Cc1ccccc1)NC(=O)[C@@H](Cc1ccccc1)NC(=O)CN)C(=O)O [GFFFY] (H-G[dF][dF][dF][dY][dK][dK][dK]-OH; C-terminus assumed) |  | bound | binding | bound | Saturation Concentration [2]: 3 to 4 nM; Kd ([2]; read-out: Estimated Kd): 1 to 2 nM; Saturation Concentration [4]: 3 to 4 nM; Kd ([4]; read-out: Estimated Kd): 1 to 2 nM; Saturation Concentration [5]: 2.3 nM; binding of BotB complex in the microplate binding assay [5]: bound; Kd ([5]; read-out: Estimated Kd): 0.022 nM
4 | NCCCC[C@@H](NC(=O)[C@@H](CCCCN)NC(=O)[C@@H](CCCCN)NC(=O)[C@@H](Cc1ccc(O)cc1)NC(=O)[C@@H](Cc1c[nH]c2ccccc12)NC(=O)CNC(=O)[C@@H](Cc1ccccc1)NC(=O)CN)C(=O)O [GFGWY] (H-G[dF]G[dW][dY][dK][dK][dK]-OH; C-terminus assumed) |  | bound | identified | bound | 
5 | NCCCC[C@@H](NC(=O)[C@@H](CCCCN)NC(=O)[C@@H](CCCCN)NC(=O)[C@@H](Cc1ccc(O)cc1)NC(=O)CNC(=O)[C@@H](Cc1c[nH]c2ccccc12)NC(=O)[C@@H](Cc1ccccc1)NC(=O)CN)C(=O)O [GFWGY] (H-G[dF][dW]G[dY][dK][dK][dK]-OH) |  |  |  |  | signs of toxicity ([6]; ip): no apparent toxicity; signs of toxicity ([6]; iv): no apparent toxicity
6 | NCCCC[C@@H](NC(=O)[C@@H](CCCCN)NC(=O)[C@@H](CCCCN)NC(=O)[C@@H](Cc1ccccc1)NC(=O)[C@@H](Cc1ccccc1)NC(=O)[C@@H](Cc1ccc(O)cc1)NC(=O)[C@@H](Cc1ccccc1)NC(=O)CN)C(=O)O [GFYFF] (H-G[dF][dY][dF][dF][dK][dK][dK]-OH; C-terminus assumed) | 100 |  | binding |  | binding of ConA to D-peptide bead (positive bead sequenced) [7]: binding
